# Experimental data published in patent publication US20150342956A1, “METHODS OF TREATMENT FOR CONDITIONS MEDIATED BY SUBSTANCE P” (Beller Pharmaceuticals LLC, priority 2014, published 2015).
# Key:
# [1] = tested on: INS symptoms in patients with a diagnosis of atypical reflux; test: Retrospective medical record review: global level of improvement (GLI) with immunotherapy and/or oral medications; type: in vivo, human; details: GLI 0-100% score
# Experimental: Some symptoms of INS have previously been associated with atypical reflux. This example describes a retrospective medical record review for cases in which these symptoms were treated with immunotherapy (allergy shots) and/or oral medications (omeprazole, gabapentin, and/or baclofen).
# The population for this example included patients 18 years or older with a diagnosis of atypical reflux and a recorded diagnostic code of 530.81 (see, e.g., http://www.cms.gov/Medicare/Coding/ICD9ProviderDiagnosticCodes/index.html). A randomized sample of 307 cases was derived from a total of 650 patients.
# Of the 307 cases, 191 (62.2%) patients tested positive for allergy, 74 (24.1%) were negative, and 42 (13.7%) had unknown allergy status. Allergy refers to IgE-mediated allergies such as ragweed, dust mites, trees, grass, pets, stinging insects, peanuts, etc. Of the 191 cases with allergy, 57 (29.8%) had no immunotherapy, 8 (4.2%) had received immunotherapy in the past, and 126 (66.0%) were currently receiving immunotherapy. Of the 126 currently receiving immunotherapy (abbreviated below as “IT”), 70 (55.6%) had reached maintenance dosing (defined as the effective, therapeutic dose; “on main”) and 56 […] had not yet reached maintenance dosing (“not on main”). The period of immunotherapy is about 3-5 years, and individuals typically reach maintenance dosing by the second half of the first year.
# Of the 307 cases, 213 (69.3%) were taking one medication and 86 (28%) were taking no medication. Seven patients were taking two medications, and one patient was taking three medications. Three oral medications used to treat INS were compared: high dose acid suppression using omeprazole (40 mg twice a day), baclofen (40 mg twice a day), and gabapentin (300 mg gradually increasing from one to three times a day).
# Global level of improvement (GLI) was represented by a 0-100% score. At each clinical visit, patients were asked to estimate the percentage of their overall improvement. Those figures were entered into the medical record as a GLI score. Trials documented as failed (stopped either due to lack of benefit or dose-limiting side effects) or inadequate (dose never titrated to benefit or side effect) are not included in the results below.
# INS symptoms = test: Exemplary cases of INS: patient-ranked symptom severity (1-10) and GLI score before and after treatment; type: in vivo, human; details: for Global Improvement (global level of improvement): three months (gabapentin stopped more than a month prior)
# Experimental: This example describes three exemplary cases of INS. Patients were given a list of INS symptoms and asked to rank those present on a scale of 1-10, with 10 indicating most severe. Treatment was provided (gabapentin, omeprazole, and/or immunotherapy).
# Patient two is a person who presented complaining of cough, runny nose, and sneezing. […] They were started on gabapentin (900 mg) and returned in two weeks for re-evaluation. They reported 60% global level of improvement with gabapentin. They were also started on immunotherapy for its long-lasting benefits. They returned for further evaluation three months later to report they had improved by 85% and had stopped the gabapentin more than a month prior to their last visit. Their symptoms were scored for severity from 1 (mild) to 10 (severe) on initial evaluation, after gabapentin, and after three months of immunotherapy. Their scores are below:
# Patient three is a person who presented complaining of cough, post nasal drip, and runny nose. […] The patient was started on immunotherapy and returned for follow-up after four months of immunotherapy. Due to their busy schedule the patient had missed several shot visits and their immunotherapy doses were never increased to the maximum, maintenance dose. They were receiving doses at 1/10th of the maintenance dose. They reported 40% improvement. Omeprazole 40 mg two times daily was added to their regimen and they returned for re-evaluation one week later to report 100% improvement. Their symptom scores are below:
# Patient one is a child who presented with their parent complaining of shortness of breath and cough. […] Their parent stated that they commonly wet the bed 2-3 times each night. They were started on omeprazole 20 mg twice a day and returned in a week. […] Their parent estimated 45% global level of improvement. The omeprazole was discontinued due to headaches and they were started on gabapentin. Their parent was advised to increase the dose slowly until it seemed to help or was causing side effects. They returned in two weeks for re-evaluation and had achieved 900 mg twice daily on gabapentin. Their parent estimated 85% global level of improvement.
# [2] = No IT (no allergy, or positive allergy but no immunotherapy)
# [3] = Patient one, omeprazole 20 mg twice a day, one week, then gabapentin 900 mg twice daily, two weeks
# [4] = Patient one, score 1-10, 0 = not present, initial visit 0, omeprazole 20 mg twice a day, one week, then gabapentin 900 mg twice daily, two weeks
# [5] = Patient one, score 1-10, 0 = not present, initial visit 3, omeprazole 20 mg twice a day, one week, then gabapentin 900 mg twice daily, two weeks
# [6] = Patient one, score 1-10, 0 = not present, initial visit 4, omeprazole 20 mg twice a day, one week, then gabapentin 900 mg twice daily, two weeks
# [7] = Patient one, score 1-10, 0 = not present, initial visit 5, omeprazole 20 mg twice a day, one week, then gabapentin 900 mg twice daily, two weeks
# [8] = Patient one, score 1-10, 0 = not present, initial visit 6, omeprazole 20 mg twice a day, one week, then gabapentin 900 mg twice daily, two weeks
# [9] = Patient one, score 1-10, 0 = not present, initial visit 7, omeprazole 20 mg twice a day, one week, then gabapentin 900 mg twice daily, two weeks
# [10] = Patient one, score 1-10, 0 = not present, initial visit 8, omeprazole 20 mg twice a day, one week, then gabapentin 900 mg twice daily, two weeks
# [11] = Patient one, score 1-10, 0 = not present, initial visit 10, omeprazole 20 mg twice a day, one week, then gabapentin 900 mg twice daily, two weeks
# [12] = Patient two, score 1-10, 0 = not present, initial visit 5, gabapentin 900 mg, two weeks, immunotherapy, three months
# [13] = Patient two, score 1-10, 0 = not present, initial visit 6, gabapentin 900 mg, two weeks, immunotherapy, three months
# [14] = Patient two, score 1-10, 0 = not present, initial visit 7, gabapentin 900 mg, two weeks, immunotherapy, three months
# [15] = Patient two, score 1-10, 0 = not present, initial visit 8, gabapentin 900 mg, two weeks, immunotherapy, three months
# [16] = Patient two, score 1-10, 0 = not present, initial visit 10, gabapentin 900 mg, two weeks, immunotherapy, three months
# [17] = Patient three, score 1-10, 0 = not present, initial visit 5, immunotherapy four months at 1/10th of maintenance dose, then omeprazole 40 mg two times daily added, one week
# [18] = Patient three, score 1-10, 0 = not present, initial visit 6, immunotherapy four months at 1/10th of maintenance dose, then omeprazole 40 mg two times daily added, one week
# [19] = Patient three, score 1-10, 0 = not present, initial visit 7, immunotherapy four months at 1/10th of maintenance dose, then omeprazole 40 mg two times daily added, one week
# [20] = Patient three, score 1-10, 0 = not present, initial visit 10, immunotherapy four months at 1/10th of maintenance dose, then omeprazole 40 mg two times daily added, one week
structure (smiles),measurement,setting,value
"NCC(CC(=O)O)c1ccc(Cl)cc1 (stereo not shown) [Baclofen, baclofen]",Mean GLI,[1]; IT not on maintenance dosing,88.33%
same,Mean GLI,[1]; IT on maintenance dosing,70.00%
same,Mean GLI,[1]; [2],53.94%
same,Mean GLI,[1]; No allergy,65.00%
"NCC1(CC(=O)O)CCCCC1 [Gabapentin, gabapentin]",Mean GLI,[1]; IT not on maintenance dosing,69.09%
same,Mean GLI,[1]; IT on maintenance dosing,70.29%
same,Mean GLI,[1]; [2],65.58%
same,Mean GLI,[1]; No allergy,55.19%
same,"Global Improvement (global level of improvement, estimated by mother)",INS symptoms; [3],85%
same,"Global Improvement (global level of improvement, estimated by mother)","INS symptoms; Patient one, omeprazole 20 mg twice a day, one week, then gabapentin 900 mg twice daily, two weeks, listed as gabapentin",85%
same,Frontal Headache severity score,INS symptoms; [4],0
same,Vulvodynia severity score,INS symptoms; [5],0
same,Fatigue severity score,INS symptoms; [6],2
same,Malaise severity score,INS symptoms; [6],2
same,Nausea severity score,INS symptoms; [6],0
same,Shortness of breath severity score,INS symptoms; [7],5
same,Chest Tightness severity score,INS symptoms; [8],0
same,Watery Eyes severity score,INS symptoms; [8],0
same,Sore Throat severity score,INS symptoms; [9],0
same,Cough severity score,INS symptoms; [10],3
same,Pollakiuria severity score,INS symptoms; [10],2
same,Post Nasal Drip severity score,INS symptoms; [10],3
same,Throat Clearing severity score,INS symptoms; [10],5
same,Bedwetting severity score,INS symptoms; [11],0
same,Runny Nose severity score,INS symptoms; [11],0
same,Global Improvement (global level of improvement),"INS symptoms; Patient two, gabapentin 900 mg, two weeks, immunotherapy",60%
same,Global Improvement (global level of improvement),"INS symptoms; Patient two, gabapentin 900 mg, two weeks, immunotherapy, listed as gabapentin",60%
same,Hoarse Voice severity score,"INS symptoms; Patient two, score 1-10, 0 = not present, initial visit 2, gabapentin 900 mg, two weeks, immunotherapy, three months",1
same,Pain in the teeth severity score,"INS symptoms; Patient two, score 1-10, 0 = not present, initial visit 3, gabapentin 900 mg, two weeks, immunotherapy, three months",1
same,Ear Pressure severity score,INS symptoms; [12],2
same,Malaise severity score,INS symptoms; [12],1
same,Watery Eyes severity score,INS symptoms; [12],2
same,Fatigue severity score,INS symptoms; [13],3
same,Shortness of breath severity score,INS symptoms; [13],4
same,Chest Tightness severity score,INS symptoms; [14],2
same,Glossodynia severity score,INS symptoms; [14],3
same,Runny Nose severity score,INS symptoms; [14],1
same,Sore Throat severity score,INS symptoms; [14],1
same,Throat Clearing severity score,INS symptoms; [14],1
same,Vertigo severity score,INS symptoms; [14],1
same,Post Nasal Drip severity score,INS symptoms; [15],1
same,Puffy Eyelids severity score,INS symptoms; [15],3
same,Cough severity score,"INS symptoms; Patient two, score 1-10, 0 = not present, initial visit 9, gabapentin 900 mg, two weeks, immunotherapy, three months",2
same,Frontal Headache severity score,INS symptoms; [16],1
same,Itchy Eyes severity score,INS symptoms; [16],1
same,Itchy Pharynx severity score,INS symptoms; [16],3
same,Itchy Skin severity score,INS symptoms; [16],4
same,Repetitive Sneezing severity score,INS symptoms; [16],2
same,Sinus Pressure severity score,INS symptoms; [16],3
"COc1ccc2[nH]c([S+]([O-])Cc3ncc(C)c(OC)c3C)nc2c1 (stereo not shown) [Omeprazole, omeprazole]",Mean GLI,[1]; IT not on maintenance dosing,60.00%
same,Mean GLI,[1]; IT on maintenance dosing,80.00%
same,Mean GLI,[1]; [2],56.67%
same,Mean GLI,[1]; No allergy,41.00%
same,Possible side effect,"INS symptoms; Patient one, omeprazole 20 mg twice a day, one week, drug discontinued",some headaches
same,"Global Improvement (global level of improvement, estimated by mother)",INS symptoms; [3],45%
same,"Global Improvement (global level of improvement, estimated by mother)","INS symptoms; Patient one, omeprazole 20 mg twice a day, one week, then gabapentin 900 mg twice daily, two weeks, listed as omeprazole",45%
same,Frontal Headache severity score,INS symptoms; [4],8
same,Vulvodynia severity score,INS symptoms; [5],0
same,Fatigue severity score,INS symptoms; [6],2
same,Malaise severity score,INS symptoms; [6],2
same,Nausea severity score,INS symptoms; [6],0
same,Shortness of breath severity score,INS symptoms; [7],5
same,Chest Tightness severity score,INS symptoms; [8],3
same,Watery Eyes severity score,INS symptoms; [8],2
same,Sore Throat severity score,INS symptoms; [9],5
same,Cough severity score,INS symptoms; [10],4
same,Pollakiuria severity score,INS symptoms; [10],2
same,Post Nasal Drip severity score,INS symptoms; [10],3
same,Throat Clearing severity score,INS symptoms; [10],8
same,Bedwetting severity score,INS symptoms; [11],0
same,Runny Nose severity score,INS symptoms; [11],5
same,Global Improvement,"INS symptoms; Patient three, immunotherapy four months at 1/10th of maintenance dose, then omeprazole 40 mg two times daily added, one week",100%
same,Ear Pressure severity score,INS symptoms; [17],0
same,Excessive Ear Wax severity score,INS symptoms; [17],1
same,Pain in the teeth severity score,INS symptoms; [17],0
same,Repetitive Sneezing severity score,INS symptoms; [17],0
same,Epistaxis severity score,INS symptoms; [18],0
same,Frontal Headache severity score,INS symptoms; [18],0
same,Pollakiuria severity score,INS symptoms; [18],0
same,Hoarse Voice severity score,INS symptoms; [19],1
same,Itchy Eyes severity score,INS symptoms; [19],1
same,Sore Throat severity score,INS symptoms; [19],0
same,Watery Eyes severity score,INS symptoms; [19],0
same,Chest Tightness severity score,INS symptoms; [20],0
same,Cough severity score,INS symptoms; [20],0
same,Nasal Congestion severity score,INS symptoms; [20],0
same,Post Nasal Drip severity score,INS symptoms; [20],0
same,Runny Nose severity score,INS symptoms; [20],0
same,Sinus Pressure severity score,INS symptoms; [20],0
same,Throat Clearing severity score,INS symptoms; [20],0
same,Vertigo severity score,INS symptoms; [20],0
